# ChEMBL document CHEMBL5055632, “Anti-Inflammatory and Antinociceptive Properties of Kielmeyerone A, a Chromenone Isolated from the Roots of Kielmeyera reticulata” (J Nat Prod, 2021)
# Active and inactive are the calls of the source. No cut-off for these calls is given here.
# What was measured:
# Mus musculus [1] = test: Antinociceptive activity in ip dosed Swiss Webster mouse model of formalin-induced biphasic nociceptive response assessed as reduction in pain during late phase when administered 40 mins before formalin injection and measured after 10 to 30 mins post formalin challenge; assay type: functional, organism-based; conditions: dose 12.5-50 mg/kg, time 50-70 min
# J774 [2] = test: Cytotoxicity against LPS and IFN-gamma stimulated mouse J774 cells at 0.39 to 25 uM incubated for 72 hrs by alamar blue dye based colorimetric plate analysis; assay type: cell-based; conditions: j774, 72 h, dose 0.39-25 µM
# Mus musculus [3] = test: Antinociceptive activity in Swiss Webster mouse model of formalin-induced biphasic nociceptive response assessed as reduction in pain during early phase at 12.5 to 50 mg/kg, ip administered 40 mins before formalin injection and measured after 10 mins post formalin challenge; assay type: functional, organism-based; conditions: dose 12.5-50 mg/kg, time 50.0 min
# Mus musculus [4] = test: Effect on motor performance in Swiss Webster mouse assessed as effect on relaxing or motor deficit at 100 mg/kg, ip measured up to 120 sec by rotarod test; assay type: ADME, organism-based; conditions: in vivo, 2 min
# Mus musculus [5] = test: Antiinflammatory activity in ip dosed Swiss Webster mouse model of complete freund's adjuvant-induced paw edema assessed as reduction in paw edema when administered 40 mins before CFA injection by plethysmometer analysis; assay type: functional, organism-based; conditions: dose 12.5-50 mg/kg
# J774 [6] = test: Antiinflammatory activity against mouse J774 cells assessed as inhibition of LPS/IFNgamma-stimulated NO production at 0.097 to 1.56 uM incubated for 24 hrs bu Griess reagent based assay; assay type: functional, cell-based; conditions: dose 0.097-1.56 µM
# Mus musculus [7] = test: Antiinflammatory activity in Swiss Webster mouse model of complete freund's adjuvant-induced paw edema assessed as reduction in paw edema at 2 mg/kg, ip administered 40 mins before CFA injection by plethysmometer analysis; assay type: functional, organism-based
# Mus musculus [8] = test: Antinociceptive activity in Swiss Webster mouse model of formalin-induced biphasic nociceptive response assessed as reduction in pain during late phase at 5 mg/kg, ip administered 40 mins before formalin injection and measured after 10 to 30 mins post formalin challenge; assay type: functional, organism-based; conditions: time 50-70 min
# Mus musculus [9] = test: Antinociceptive activity in Swiss Webster mouse model of formalin-induced biphasic nociceptive response assessed as reduction in pain during early phase at 5 mg/kg, ip administered 40 mins before formalin injection and measured after 10 mins post formalin challenge; assay type: functional, organism-based; conditions: time 50.0 min
smiles,measurement,setting,value
CC(C)=CCC1(CC=C(C)C)C(=O)c2c(CC(C)C)cc(=O)oc2C(C(=O)CC(C)C)=C1O,Activity,Mus musculus [1],inactive
same,Activity,J774 [2],Non-Toxic
same,Activity,Mus musculus [3],Dose-dependent effect
same,Activity,Mus musculus [4],Non-Toxic
same,Activity,Mus musculus [5],Dose-dependent effect
same,inhibition,J774 [6],Active
C[C@@H]1C[C@H]2[C@@H]3CCC4=CC(=O)C=C[C@]4(C)[C@@]3(F)[C@@H](O)C[C@]2(C)[C@@]1(O)C(=O)CO,Activity,Mus musculus [7],Active
CN1CC[C@]23c4c5ccc(O)c4O[C@H]2[C@@H](O)C=C[C@H]3[C@H]1C5,Activity,Mus musculus [8],Active
same,Activity,Mus musculus [9],Active
COc1ccc2c(c1)c(CC(=O)O)c(C)n2C(=O)c1ccc(Cl)cc1,Activity,Mus musculus [8],Active
same,Activity,Mus musculus [9],inactive
